Experimental data taken from publication PMC5819854 (ACS Omega, 2017).
Like-named read-outs stand apart in the source and are kept apart here.

What was measured:
human D3R = human D3R (Homo sapiens, UniProt P35462); experiment: Radioligand competition binding, human D3R
human μOR = human μOR (Homo sapiens, UniProt P35372); experiment: biochemical; assay type: binding
human κOR = human κOR (Homo sapiens, UniProt P41145); experiment: biochemical; assay type: binding
human δOR = human δOR (Homo sapiens, UniProt P41143); experiment: biochemical; assay type: binding
human δOR, sequence (P41143 whole entry): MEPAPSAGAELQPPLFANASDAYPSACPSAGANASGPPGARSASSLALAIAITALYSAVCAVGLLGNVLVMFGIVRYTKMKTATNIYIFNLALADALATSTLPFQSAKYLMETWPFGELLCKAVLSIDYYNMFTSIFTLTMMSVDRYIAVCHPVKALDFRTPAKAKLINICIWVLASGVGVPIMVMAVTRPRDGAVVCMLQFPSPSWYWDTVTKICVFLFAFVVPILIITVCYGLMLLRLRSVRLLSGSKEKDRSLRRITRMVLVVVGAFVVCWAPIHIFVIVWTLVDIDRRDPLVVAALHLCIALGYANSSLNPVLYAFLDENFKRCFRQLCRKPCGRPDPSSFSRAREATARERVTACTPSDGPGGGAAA

human D3R, sequence (P35462 whole entry): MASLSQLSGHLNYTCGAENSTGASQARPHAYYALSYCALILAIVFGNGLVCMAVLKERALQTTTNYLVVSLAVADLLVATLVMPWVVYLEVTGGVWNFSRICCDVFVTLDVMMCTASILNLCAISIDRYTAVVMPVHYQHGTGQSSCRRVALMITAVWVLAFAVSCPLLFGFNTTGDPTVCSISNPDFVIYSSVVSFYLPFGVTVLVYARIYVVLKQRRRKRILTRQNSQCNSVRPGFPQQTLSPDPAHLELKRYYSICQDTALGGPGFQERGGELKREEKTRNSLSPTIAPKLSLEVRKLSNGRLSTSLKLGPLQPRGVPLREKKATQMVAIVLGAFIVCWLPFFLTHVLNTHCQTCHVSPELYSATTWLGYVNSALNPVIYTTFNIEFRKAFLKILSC
human μOR, sequence (P35372 whole entry): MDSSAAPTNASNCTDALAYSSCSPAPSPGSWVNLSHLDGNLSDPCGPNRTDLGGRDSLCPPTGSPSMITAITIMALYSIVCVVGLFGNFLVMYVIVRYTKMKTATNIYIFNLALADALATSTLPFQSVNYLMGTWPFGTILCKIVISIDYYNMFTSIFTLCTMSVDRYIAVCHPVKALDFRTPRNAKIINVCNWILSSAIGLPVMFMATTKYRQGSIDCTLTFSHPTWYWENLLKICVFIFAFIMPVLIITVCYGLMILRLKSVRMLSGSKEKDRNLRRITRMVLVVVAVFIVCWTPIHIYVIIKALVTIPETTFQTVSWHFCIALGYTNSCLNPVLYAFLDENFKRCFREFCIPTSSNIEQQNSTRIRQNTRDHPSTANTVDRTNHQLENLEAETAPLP
human κOR, sequence (P41145 whole entry): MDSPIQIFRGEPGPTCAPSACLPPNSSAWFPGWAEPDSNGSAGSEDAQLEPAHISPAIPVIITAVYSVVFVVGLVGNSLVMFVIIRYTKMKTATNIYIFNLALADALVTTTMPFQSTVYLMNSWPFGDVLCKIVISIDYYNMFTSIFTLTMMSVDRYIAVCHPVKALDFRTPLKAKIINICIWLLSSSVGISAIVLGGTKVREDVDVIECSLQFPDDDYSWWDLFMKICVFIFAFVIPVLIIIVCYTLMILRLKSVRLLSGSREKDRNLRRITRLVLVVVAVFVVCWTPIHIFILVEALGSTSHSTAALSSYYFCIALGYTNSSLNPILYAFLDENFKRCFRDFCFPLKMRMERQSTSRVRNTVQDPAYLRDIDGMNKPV

Compound: 2-(4-Fluoro-2-methoxyphenyl)-N-(4-(4-(2-methoxyphenyl)piperazine-1-yl)but-1-yl)azocarboxamide [3d]
- affinity for the D3 receptor (in words) (human D3R): single-digit

Compound: 2-(4-Fluorobiphen-2-yl)-N-(4-(4-(3-methoxyphenyl)piperazine-1-yl)but-1-yl)azocarboxamide [3e]
- affinity for the D3 receptor (in words) (human D3R): sub-nanomolar
- D3 selectivity over 5-HT1A, Ki(5-HT1A/D3) (human D3R; ratio of Ki values): 43
- increase of D3 affinity compared to reference compound 3a (human D3R; vs ortho- and meta-unsubstituted 3a): 10 fold

Compound: CN(C)C1(CNC(=O)/N=N/c2ccc(F)cc2)CCCCC1 [4a, (E)-N-((1-(Dimethylamino)cyclohexyl)methyl)-2-(4-fluorophenyl)diazene-1-carboxamide]
- Ki (human μOR): 2.5 ± 1.1 µM
- selectivity between the κ and μ opioid receptor subtypes (in words) (human μOR): did not show any selectivity
- Ki (human κOR): 3.1 ± 0.78 µM

Compound: Cc1cc(F)ccc1/N=N/C(=O)NCC1(N(C)C)CCCCC1 [4b, (E)-N-((1-(Dimethylamino)cyclohexyl)methyl)-2-(4-fluoro-2-methylphenyl)diazene-1-carboxamide]
- Ki (human μOR): 4.9 ± 0.35 µM
- Ki (human κOR): 6.1 ± 1.8 µM

Compound: Cc1cc(/N=N/C(=O)NCC2(N(C)C)CCCCC2)ccc1F [4c, (E)-N-((1-(Dimethylamino)cyclohexyl)methyl)-2-(4-fluoro-3-methylphenyl)diazene-1-carboxamide]
- Ki (human μOR): 1.1 ± 0.35 µM
- affinity for the μ-opioid receptor (in words) (human μOR): micromolar
- subtype selectivity Ki(δOR/μOR) (human μOR): 27
- subtype selectivity Ki(κOR/μOR) (human μOR): 4.4
- Ki (human κOR): 4.8 ± 1.8 µM

Compound: COc1cc(F)ccc1/N=N/C(=O)NCC1(N(C)C)CCCCC1 [4d, (E)-N-((1-(Dimethylamino)cyclohexyl)methyl)-2-(4-fluoro-2-methoxyphenyl)diazene-1-carboxamide]
- Ki (human μOR): 7.4 ± 5.2 µM
- selectivity between the κ and μ opioid receptor subtypes (in words) (human μOR): did not show any selectivity
- Ki (human δOR): 38 ± 38 µM
- Ki (human κOR): 7.2 ± 1.8 µM

Compound: (E)-N-((1-(Dimethylamino)cyclohexyl)methyl)-2-(4-fluorobiphen-2-yl)diazene-1-carboxamide [4e]
- Ki (human μOR; read-out: Ki μOR): 2.1 ± 0.57 µM
- Ki (human κOR; read-out: Ki κOR): 4.8 ± 1.3 µM
